Assay results from a melting point compilation (Tetko et al.; mined from patent text by program, amines drawn as free bases though some values may be those of a salt).

Compound | melting point [°C]
CCNC(=O)Nc1nc2cc(-c3cccnc3)cc(-c3nc(C)no3)n2n1 | 298 to 301
Cc1nn(-c2ccc(Cl)cc2)c(=O)[nH]1 | 218 to 219
CCCCN(CCCCO)c1ccc(C=Cc2ccc(C=CC3=C(C#N)C(=C(C#N)C#N)OC3(C)C)s2)c(OCc2ccccc2)c1 | 216 to 217
COc1c(Cl)ccc(-c2cc(N)c(Cl)c(C(=O)NOC3C=CCCC3)n2)c1F (configuration not stated) | 180 to 182
N=C(c1ccccc1)c1cc(Cl)ccc1O | 129 to 131
Cc1cc(C)n(-c2nc(Nc3ccc(I)cc3)c3ccccc3n2)n1 | 226 to 229
Cc1ccc(S(=O)(=O)OCC(C)(O)C(=O)c2ccccc2)cc1 (configuration not stated) | 88 to 90
COc1ccc(C(=O)O)c(Cl)c1Cl | 224 to 226
COc1cc(C(=O)O)c(-n2c3ccccc3c3ccccc32)cc1C(=O)O | 298
Nc1c(Br)cc2c3c(cccc13)C(=O)N(O)C2=O | 318 to 324
CCC(=O)Nc1nnc2c3c(c(N4CCCCC4)nn12)CCCC3 | 173 to 174
CC1C(=O)C2CCCCC2N2CCc3ccccc3C12 (configuration not stated) | 144 to 148
COC(=O)c1c(-c2ccncc2)[nH]c(-c2ccncc2)c1C | 245 to 247
CC(Nc1ncnc2[nH]cnc12)c1oc2cccc(F)c2c(=O)c1-c1cccc(F)c1 (configuration not stated) | 195 to 198
CCc1oc2ccc([N+](=O)[O-])cc2c1C(=O)c1ccc(OC)cc1 | 130
NC(=O)c1c(Cl)c(-c2ccccc2)n2c1CN(C(=O)c1cccs1)CC2 | 236 to 238
CCCCCCCCCCN(O)C(=O)NCCCC(=O)OC | 89 to 90
Cc1nc2c(cc1C(=O)O)CCCC2 | 196 to 197
CC(C)(C)OC(=O)N1CCN(CC(=O)O)CC1 | 195 to 197
COc1ccc2c(c1)c(CNc1ccccc1Oc1ccc(Cl)cc1)cn2C(C)=O | 140 to 141
CCOC(=O)C1=C(C)NC(C(OCC)OCC)=C(C(=O)OCC)C1c1ccco1 (configuration not stated) | 59 to 60
COc1cc(OC)c(C2=CCN(C)CC2)c(OC)c1 | 112 to 114
CCC1=c2ccccc2=NC1=O | 100 to 101
NCCc1c[nH]c2ccc(Cc3nnn(Cc4ccccc4)n3)cc12 | 181 to 183
COc1cc(OC)c2c(=O)nc(-c3cc(C)c(O)c(C)c3)n(C)c2c1 | 188 to 189
CN(CCNC(=O)c1nc(Cl)c(N)nc1N)CCC(=O)NCCN | 140 to 142

Compound | melting point [°C]
Cc1c(NC(=O)c2ccc(-c3ccc(F)cc3)cc2)ccc2cc(CN(C)C)cnc12 | 161 to 163
O=C1C2=C(CCCC2)C(=O)N1c1ccc(F)cc1F | 73 to 74
CC1Cc2c(C#N)cccc2C1=O (configuration not stated) | 101 to 102
Cn1c(=O)on(-c2ccccc2)c1=O | 98 to 99
OC(CNCc1ccccc1)c1cc(C(F)(F)F)nc2c(C(F)(F)F)cccc12 (configuration not stated) | 138 to 139
CCCn1c(=O)c2[nH]c(C3CCCC3)nc2n(CCc2ccc(NC(C)=O)cc2)c1=O | > 270
CN1CCN(c2cccc3ccc(O)cc23)CC1 | 112
N#Cc1nn(-c2c(Cl)cc(C(F)(F)F)cc2Cl)c(N)c1-c1ccccc1Cl | 192 to 193
CCc1[nH]c2cc(F)ccc2c1C1=CCNCC1 | 194 to 196
CC(C)OC(=O)C(C(=O)OC(C)C)=C1SC2C(S1)N(C(C)C)CCN2C(C)C (configuration not stated) | 82 to 84
CCOC(=O)c1cc(C#N)c(=O)[nH]c1C | 208 to 210
CC(=O)N(C)C(=O)Oc1cccc2c1OCO2 | 48 to 50
CC1(C)CCC(C)(C)c2cc3cc(-c4ccc(C(=O)O)c(Cl)c4)ccc3cc21 | 213 to 215
Cn1c(=O)c2c(ncn2CN2CCCC2)n(C)c1=O | 105 to 108
CC(C)n1nc(-c2cnc(N)nc2-c2ccco2)ccc1=O | 215
Cc1[nH]c2ccccc2c1CCN1CCN(NC(=O)c2ccccc2)CC1 | 130 to 133
Cc1cc(C(=O)Nc2nc(-c3ccoc3)c(C(=O)C3CCOCC3)s2)ccn1 | 202 to 204
CN1C(=O)[C@H](NC(=O)/C=C/c2ccc(F)cc2F)N=C(c2ccccc2)c2ccccc21 | 121 to 123
O=C1N=CC(OCC2CC2)(C(F)(F)F)c2cc(F)ccc2N1 (configuration not stated) | 198 to 199
CCN1CC(=O)N(c2cc(Cl)ccc2C)C1=S | 152 to 154
CC(=O)c1ccc(C(=O)NC/C=C/c2ccccc2)cc1 | 120
CCOC(=O)c1cc(O)c2c(n1)c(C)cc1c(O)cc(C(=O)OCC)nc12 | 198 to 200
CCS(=O)(=O)Nc1ccc2[nH]cc(C3=CCN(C)CC3)c2c1 | 224 to 226
NS(=O)(=O)c1nc2cc(O)ccc2s1 | 224
Cc1ccc(C(=O)Nc2ccc(-n3nc(C(F)(F)F)cc3C(F)(F)F)cc2)cc1 | 225 to 226

Next, values leading:

melting point [°C] | Compound
189 to 191 | COCc1c(-c2ccccc2)ncc2[nH]c3ccc(OCc4ccccc4)cc3c12
275 to 282 | Cc1ccnc(Nc2nc(-c3ccc(OC(F)(F)F)cc3)cs2)c1
148 to 150 | CN(C)C=C(C=O)OCCO
230 to 234 | c1cc(-n2ccnc2)cc(-n2cnc3cc(-c4ccon4)ccc32)c1
124 | COC(=O)n1cc(C)c2c(OCc3ccccc3)c(OC)ccc21
89 to 91 | CCOC(=O)/C=C(C)/C=C/C=C(C)/C=C/c1c(C)oc(C)c1C
124 to 125 | COc1cc(Nc2nccc(-c3ccc(NCCCNC(C)C)nc3)n2)cc(OC)c1OC
238 to 240 | Fc1cnc(Nc2nc3c(s2)CCN(CCCN2CCC(F)(F)CC2)c2n[nH]cc2-3)nc1
93 to 94 | NC(=O)CCCCCCCCCCC(Cl)(Cl)C(=O)O
150 to 152 | O=C1Cc2cccc(Oc3ccccc3O)c2O1
170 to 171 | CC(C)Cn1c(=O)n(C)c(=O)c2c(C#CCCO)n(Cc3cccc4ccccc34)cc21
144 to 146 | C=C(C)C(=O)Oc1c(Cc2cc(C)cc(C(C)(C)C)c2O)cc(C)cc1C(C)(C)C
121 to 124 | CCc1nc2c(cnn2CC)c(NC2CCOCC2)c1CNC(=O)c1cccc(C(=O)NCc2cc(Cl)cc(-c3cccc(CN4CCCNCC4)c3)c2)c1
121 | Cc1cc(C)cc(N(CCCC(=O)O)Cc2ccc3nc(NCCCN4CCOCC4)n(Cc4nc(C)ccc4O)c3c2)c1
269 to 270 | CN1C(=O)CC[C@]2(C)c3ccc(NC(=O)c4ccc([N+](=O)[O-])cc4)cc3CC[C@@H]12
132 to 133 | Cc1nnc(-c2ccc3occ(-c4ccc(OCCS(C)(=O)=O)cc4)c3c2)o1
163 to 164 | CCCCc1nc2c(N)nc3cccnc3c2n1CCNC(=O)CC(C)CCC=C(C)C (configuration not stated)
213 to 215 | Oc1cc(C2CC2)[nH]n1
191 to 193 | COc1cc2c(c3c1OC(C)(C)C3)C(c1cccc(C(=O)NC3CCNC3=O)c1)=NC(C)(C)C2 (configuration not stated)
240 to 242 | O=C(Nc1ccc(C(=O)N2CCc3nc(-c4ccccn4)[nH]c3-c3ccccc32)cc1)c1ccccc1-c1ccccc1
122 | CC(=O)c1cc2c(C(C)=O)c(OCC(O)CNC(C)(C)C)ccc2o1 (configuration not stated)
122 to 124 | COc1ccc(C(=O)c2c(F)cccc2F)cc1
235 to 236 | CC1(C)OC(=O)Nc2c(Br)cc(-c3ccc(F)c(C#N)c3)cc21
286 to 289 | Cc1nc(N2CCN(c3ccccc3)C2=O)sc1C(=O)O
172 | FC1CNC(c2ccc3c(c2)OCO3)c2[nH]c3ccccc3c21 (configuration not stated)
194 to 195 | COc1cc(C2C(C(=O)O)c3ccccc3C(=O)N2C)cc(OC)c1OC (configuration not stated)

melting point [°C] | Compound
94 to 96 | CCOC(=O)c1c2ccc(Cl)cc2c(-c2ccccc2)n1C
80 to 81 | CCCCCCCCCCCCCCN(C)c1cc(OCC)c(N)cc1C(=O)O
252 to 253 | CC1CC(=O)NN=C1c1ccc(NC(=O)C2CC2(Cl)Cl)cc1 (configuration not stated)
84 to 84.5 | CC(C)C[C@@H]1OC(O)[C@H](Cc2ccccc2)NC1=O (some centres not stated)
200 | O=C(c1ccc(=O)[nH]c1)n1ccnc1
211 to 213 | Oc1ccc2nc(Nc3ccccc3)cnc2c1
143 to 144 | O=C(Nc1ccccc1)N1C(=S)C2(CCCCC2)NC12CCCCC2
56 to 57 | Cc1cc(Cl)ccc1N=CN(C)SSN(C)C=Nc1ccc(Cl)cc1C
120 to 122 | CC1CC(Nc2ccc(F)cc2)c2cc(F)ccc2N1 (configuration not stated)
162 to 164 | CC(=N)Nc1ccc2nc(-c3ccccc3)ncc2c1
> 270 | Nc1cc(Sc2cccc3cnccc23)c(Cl)cc1[N+](=O)[O-]
99 to 101 | Cc1c(CO)c(CO)c2n1Cc1ccccc1C2
157 to 158 | CCCCCN(CCCCC)C(=O)[C@H]1Cc2c([nH]c3ccccc23)CN1
239 to 241 | O=C1NCCN1c1ccc(S(=O)(=O)Nc2ccc3[nH]ccc3c2)cc1
293 to 294 | COc1ccc(C2C3=C(COC3=O)Nc3ccc4cc(C)[nH]c4c32)cc1O (configuration not stated)
164 | CC(C)CC(=O)OC1(C(=O)CO)CCC2C3CC(C)C4=CC(=O)C=CC4(C)C3C(O)CC21C (configuration not stated)
194 | O=C1CNN(c2cc(Cl)c(C(C(=O)O)c3ccc(Cl)cc3)c(Cl)c2)C(=O)N1 (configuration not stated)
205 to 206 | CC(=O)NCOc1ccc(S(=O)(=O)N2C3CCC2CN(CC(=O)Nc2ccccc2C)C3)cc1
160 to 163 | O=C1c2cccc3c2N(C(=O)C2CCCN12)C(c1ccccc1)O3 (configuration not stated)
93 to 101 | COc1cc2c(cc1Nc1ncc(Cl)c(Nc3ccccc3S(=O)(=O)N(C)C)n1)CCN(C(=O)C(C)(C)N)CC2
131 to 135 | CC(C)CCN1CCC(CNC(=O)c2cc(Cl)c(N)[nH]c2=O)CC1
150 to 152 | COC[C@H]1CCCN1C(=O)c1cc(-c2ccccc2)c(=O)n2c1-c1sccc1C2
143 to 146 | OC1(c2ccccc2Cc2cc(F)ccc2F)CCN(Cc2ccccc2)CC1
220 to 223 | O=c1[nH]ncc(Cl)c1NCCN1CCN(c2cccc(C(F)(F)F)c2)CC1
111 to 114 | O=[N+]([O-])c1cc(Cl)c(CO)c(Cl)c1
